The values below come from US10640534B2 (Agios Pharmaceuticals, Inc., priority 2012, dated 2020).

The IC50 is the concentration at which inhibition is half-maximal. A higher IC50 goes with a need for much substance.

This assay deals with U87MG cells. In words: Cellular assay, inhibition of 2-HG production in U87MG cells. In kind it is cell-based. As to conditions: Homo sapiens, U-87 MG, 48 h. On the procedure: Cells (HT1080 or U87MG) are grown in T125 flasks in DMEM containing 10% FBS, 1× penicillin/streptomycin and 500 ug/mL G418 (present in U87MG cells only). They are harvested by trypsin and seeded into 96 well white bottom plates at a density of 5000 cell/well in 100 ul/well in DMEM with 10% FBS. […] Cells are incubated overnight at 37° C. in 5% CO2. The next day test compounds are made up at 2× the final concentration and 100 ul are added to each cell well. The final concentration of DMSO is 0.2% and the DMSO control wells are plated in row G. The plates are then placed in the incubator for 48 hours. […] The cell plate is placed back in the incubator for another 24 hours. At 72 hours post compound addition, 10 mL/plate of Promega Cell Titer Glo reagent is thawed and mixed. The cell plate is removed from the incubator and allowed to equilibrate to room temperature. Then 100 ul of Promega Cell Titer Glo reagent is added to each well of media. The cell plate is then placed on an orbital shaker for 10 minutes and then allowed to sit at room temperature for 20 minutes. The plate is then read for luminescence with an integration time of 500 ms.

As for `N#Cc1ccnc(N2C(=O)CC[C@H]2C(=O)N(c2cccc(OCCO)c2)[C@H](C(=O)NC2CC(F)(F)C2)c2ccccc2Cl)c1` (single isomer, unassigned) [Compound 130], the IC50 was under 100 nM. For the molecule `N#Cc1ccnc(N2C(=O)CC[C@H]2C(=O)N(c2cccc(OC(F)F)c2)[C@H](C(=O)NC2CC(F)(F)C2)c2ccccc2Cl)c1` (single isomer, unassigned) [Compound 181], the IC50 is under 100 nM. `C[C@]1(O)C[C@@H](C(=O)N(c2cccc(F)c2)C(C(=O)NC2CC(F)(F)C2)c2ccccc2Cl)N(c2cc(C#N)ccn2)C1=O` (single isomer, unassigned) [Compound 183] had an IC50 of under 100 nM. Then `O=C(NC1CC(F)(F)C1)C(c1ccccc1Cl)N(C(=O)[C@@H]1CCCC(=O)N1c1ncccn1)c1cccc(F)c1` (stereo in doubt) [Compound 20, (S)—N—((R)-1-(2-Chloro-phenyl)-2-((3,3-difluorocyclobutyl)amino)-2-oxoethyl)-N-(3-fluoro-phenyl)-6-oxo-1-(pyrimidin-2-yl)piperidine-2-carboxamide], with 100 to 500 nM; and `O=C(NC1CC(F)(F)C1)[C@H](c1ccccc1Cl)N(C(=O)[C@@H]1CCC(=O)N1c1ncccn1)c1cccc(F)c1` [Compound 1], with 100 to 500 nM; and `O=C(NC1CCC(F)(F)CC1)[C@H](c1ccccc1Cl)N(C(=O)[C@@H]1CCC(=O)N1c1ncccn1)c1cccc(F)c1` [Compound 4, (S)—N—((S)-1-(2-chlorophenyl)-2-((4,4-difluorocyclohexyl)amino)-2-oxoethyl)-N-(3-fluorophenyl)-5-oxo-1-(pyrimidin-2-yl)pyrrolidine-2-carboxamide], with under 100 nM. As for `O=C(NC1CC(F)(F)C1)C(c1ccccc1Cl)N(C(=O)[C@@H]1CCC(=O)N1c1ccccn1)c1cccc(F)c1` (some centres unmarked) [Compound 5], the IC50 was in the range of 100 to 500 nM. For `O=C(NC1CCCCC1)[C@H](c1ccccc1Cl)N(C(=O)[C@@H]1CCC(=O)N1c1ncccn1)c1cccc(F)c1` [Compound 7] the value was under 100 nM. For `O=C(NC1CC(F)(F)C1)[C@H](c1ccccc1Cl)N(C(=O)[C@@H]1COC(=O)N1c1ncccn1)c1cccc(F)c1` [Compound 9, (S)—N—((S)-1-(2-chloro-phenyl)-2-(3,3-difluorocyclo-butylamino)-2-oxoethyl)-N-(3-fluorophenyl)-2-oxo-3-(pyrimidin-2-yl)oxazolidine-4-carboxamide] the value was under 100 nM; for `O=C(NC1CC(F)(F)C1)[C@H](c1ccccc1Cl)N(C(=O)[C@@H]1CCC(=O)N1c1nccs1)c1cccc(F)c1` [Compound 14], 100 to 500 nM. Then `O=C(NC1CC(F)(F)C1)C(c1ccccc1Cl)N(C(=O)C1CCC(=O)N1c1cnccn1)c1cccc(F)c1` (centres unmarked) [Compound 18], with under 100 nM; and `Cc1ccc(N2C(=O)CC[C@H]2C(=O)N(c2cccc(F)c2)[C@H](C(=O)NC2CC(F)(F)C2)c2ccccc2Cl)nc1` [Compound 21], with 100 to 500 nM; and `O=C(NC1CC(F)(F)C1)C(c1ccccc1Cl)N(C(=O)[C@@H]1CCC(=O)N1c1ccccc1)c1cccc(F)c1` (some centres unmarked) [Compound 23], with 100 to 500 nM. For the molecule `O=C(NC1CC(F)(F)C1)[C@H](c1ccccc1Cl)N(C(=O)[C@@H]1CCC(=O)N1c1ccc(F)cn1)c1cccc(F)c1` [Compound 29], the 50% inhibitory concentration (IC50) is under 100 nM.

In the case of `O=C(NC1CC(F)(F)C1)[C@H](c1ccccc1Cl)N(C(=O)[C@@H]1COCC(=O)N1c1ncccn1)c1cccc(F)c1` [Compound 30, (S)—N—((S)-1-(2-chlorophenyl)-2-((3,3-difluorocyclobutyl)amino)-2-oxoethyl)-N-(3-fluorophenyl)-5-oxo-4-(pyrimidin-2-yl)morpholine-3-carboxamide], the IC50 was 100 to 500 nM. For `O=C(NC1CC(F)(F)C1)[C@H](c1ccccc1Cl)N(C(=O)[C@@H]1CCC(=O)N1c1cc(Cl)ccn1)c1cccc(F)c1` [Compound 33] the value was 100 to 500 nM.

The molecule `N#Cc1ccnc(N2C(=O)CC[C@H]2C(=O)N(c2cccc(F)c2)[C@H](C(=O)NC2CC(F)(F)C2)c2ccccc2Cl)c1` [Compound 37] registered an IC50 of under 100 nM. Then `O=C(NC1CC(F)(F)C1)[C@H](c1ccccc1Cl)N(C(=O)[C@@H]1CCC(=O)N1c1cscn1)c1cccc(F)c1` [Compound 43, (S)—N—((S)-1-(2-Chlorophenyl)-2-(3,3-difluorocyclobutylamino)-2-oxoethyl)-N-(3-fluorophenyl)-5-oxo-1-(thiazol-4-yl)pyrrolidine-2-carboxamide], with under 100 nM; and `N#Cc1ccc(N2C(=O)CC[C@H]2C(=O)N(c2cccc(F)c2)[C@H](C(=O)NC2CC(F)(F)C2)c2ccccc2Cl)nc1` [Compound 47], with 100 to 500 nM; and `O=C(NC1CC(F)(F)C1)C(c1c(Cl)cccc1Cl)N(C(=O)[C@@H]1CCC(=O)N1c1ncccn1)c1cccc(F)c1` (some centres unmarked) [Compound 51], with 100 to 500 nM.

Turning to `N#Cc1ccnc(N2C(=O)CC[C@H]2C(=O)N(c2cccc(F)c2)[C@H](C(=O)NC2CCC(F)(F)CC2)c2ccccc2Cl)c1` [Compound 53], the IC50 is under 100 nM. For `N#Cc1ccnc(N2C(=O)CCC[C@H]2C(=O)N(c2cccc(F)c2)[C@H](C(=O)NC2CC(F)(F)C2)c2ccccc2Cl)c1` [Compound 55, (S)—N—((S)-1-(2-Chlorophenyl)-2-(3,3-difluorocyclobutylamino)-2-oxoethyl)-1-(4-cyanopyridin-2-yl)-N-(3-fluorophenyl)-6-oxopiperidine-2-carboxamide] the value was under 100 nM; for `O=C(NC1CCC(F)(F)CC1)[C@H](c1ccccc1Cl)N(C(=O)[C@@H]1CCC(=O)N1c1cnccn1)c1cccc(F)c1` [Compound 58, (S)—N—((S)-1-(2-Chlorophenyl)-2-(4,4-difluorocyclohexylamino)-2-oxoethyl)-N-(3-fluorophenyl)-5-oxo-1-(pyrazin-2-yl)pyrrolidine-2-carboxamide], under 100 nM. Then `N#Cc1ccnc(N2C(=O)CC[C@H]2C(=O)N(c2cccc(F)c2)[C@H](C(=O)NC2CC(F)(F)C2)c2ccccc2Cl)n1` [Compound 68, (S)—N—((S)-1-(2-Chlorophenyl)-2-((3,3-difluorocyclobutyl)amino)-2-oxoethyl)-1-(4-cyanopyrimidin-2-yl)-N-(3-fluorophenyl)-5-oxopyrrolidine-2-carboxamide], with under 100 nM; and `N#Cc1cccnc1N1C(=O)CC[C@H]1C(=O)N(c1cccc(F)c1)[C@H](C(=O)NC1CC(F)(F)C1)c1ccccc1Cl` [Compound 69, (S)—N—((S)-1-(2-Chlorophenyl)-2-((3,3-difluorocyclobutyl)amino)-2-oxoethyl)-1-(3-cyanopyridin-2-yl)-N-(3-fluorophenyl)-5-oxopyrrolidine-2-carboxamide], with under 100 nM. For `O=C(NC1CC(F)(F)C1)[C@H](c1ccccc1Cl)N(C(=O)[C@@H]1CCC(=O)N1c1ncccn1)c1cc(F)cc(F)c1` [Compound 70, (S)—N—((S)-1-(2-Chlorophenyl)-2-((3,3-difluorocyclobutyl)amino)-2-oxoethyl)-N-(3,5-difluoro-phenyl)-5-oxo-1-(pyrimidin-2-yl)pyrrolidine-2-carboxamide] the value was under 100 nM. `N#Cc1ccnc(N2C(=O)CC[C@H]2C(=O)N(c2cc(F)cc(F)c2)[C@H](C(=O)NC2CC(F)(F)C2)c2ccccc2Cl)c1` [Compound 71, (S)—N—((S)-1-(2-Chlorophenyl)-2-((3,3-difluorocyclobutyl)amino)-2-oxoethyl)-1-(4-cyanopyridin-2-yl)-N-(3,5-difluorophenyl)-5-oxopyrrolidine-2-carboxamide] came in with an IC50 of under 100 nM. Then `O=C(NC1CC(F)(F)C1)[C@H](c1ccccc1Cl)N(C(=O)[C@@H]1COC(=O)N1c1cscn1)c1cccc(F)c1` [Compound 72, (S)—N—((S)-1-(2-Chlorophenyl)-2-((3,3-difluorocyclobutyl)amino)-2-oxoethyl)-N-(3-fluorophenyl)-2-oxo-3-(thiazol-4-yl)oxazolidine-4-carboxamide], with under 100 nM; and `O=C(NC1CCC(F)(F)CC1)[C@H](c1ccccc1Cl)N(C(=O)[C@@H]1CCC(=O)N1c1cscn1)c1cccc(F)c1` [Compound 74], with under 100 nM.

The molecule `N#Cc1ccnc(N2C(=O)CCC[C@H]2C(=O)N(c2cccc(F)c2)[C@H](C(=O)NC2CCC(F)(F)CC2)c2ccccc2Cl)c1` [Compound 75, (S)—N—((S)-1-(2-Chlorophenyl)-2-((4,4-difluorocyclohexyl)amino)-2-oxoethyl)-1-(4-cyano-pyridin-2-yl)-N-(3-fluorophenyl)-6-oxopiperidine-2-carboxamide] gave a 50% inhibitory concentration (IC50) of under 100 nM. `O=C(NC1CCC(F)(F)CC1)[C@H](c1ccccc1Cl)N(C(=O)[C@@H]1COC(=O)N1c1ncccn1)c1cccc(F)c1` [Compound 76, (S)—N—((S)-1-(2-Chlorophenyl)-2-((4,4-difluorocyclohexyl)amino)-2-oxoethyl)-N-(3-fluoro-phenyl)-2-oxo-3-(pyrimidin-2-yl)oxazolidine-4-carboxamide]: the 50% inhibitory concentration (IC50) is under 100 nM. Then `N#Cc1ccnc(N2C(=O)OC[C@H]2C(=O)N(c2cccc(F)c2)[C@H](C(=O)NC2CC(F)(F)C2)c2ccccc2Cl)c1` [Compound 77, (S)—N—((S)-1-(2-Chlorophenyl)-2-(3,3-difluorocyclobutylamino)-2-oxoethyl)-3-(4-cyanopyridin-2-yl)-N-(3-fluorophenyl)-2-oxooxazolidine-4-carboxamide], with under 100 nM.
